These results are taken from US20140142333A1, “NOVEL ANILINE DERIVATIVES AND USE THEREOF” (NEOMICS Co, Ltd., priority 2011, published 2014).

For one data set, the system named is WI-26 cells. Nature of the data set: MTT assay on normal WI-26 cells (cytotoxicity). It counts as cell-based. The following applies: MTT assay after 48 hours; data not shown. How it is done: As a result, 22 compounds were primarily screened. Normal cells, that is, WI-26 cells were treated with the 22 compounds.
The test system of data set [1] is NCI-H460. Nature of the data set: MTT assay on lung cancer cell line NCI-H460. It counts as cell-based, human. As to conditions: 0.04 uM, 0.4 uM and 4 uM; 24, 48 and 72 hours; serum free RPMI; FIG. 6. How it is done: Lung cancer cell line, NCI-H460, was cultured in RPMI (HyQ RPMI-1640, Hyclone) medium of streptomycin, containing 10% fetal bovine serum and 1% penicillin for 48 hours, and transferred to a 96-well plate. 12 hours later, the medium was replaced by serum free RPMI medium, and then the cell line was treated with the compound of Formula 1 at a concentration of 0.04 uM, 0.4 uM and 4 uM. 24 hours, 48 hours, and 72 hours later, MTT assay at each concentration was performed.

Data set [2] relates to NCI-H460. The experiment in a line: FACS assay of apoptosis in NCI-H460. As to conditions: medium containing 2% FBS; FIG. 7. It is filed as cell-based, human. The method, then: Lung cancer cell line, NCI-H460, was cultured in RPMI (HyQ RPMI-1640, Hyclone) of streptomycin, containing 10% fetal bovine serum, and 1% penicillin. In order to investigate the effect of the inventive compound on a cell cycle, cells were treated with the inventive compound and cultured in medium containing 2% FBS. The cells were collected and subjected to FACS assay.

The next data set deals with NCI-H460 cells. The experiment in a line: nude mouse transplanted with NCI-H460 cells, tumor growth inhibition. It is filed as in vivo. As to conditions: salt form, 50 mg/kg once a day, 27 days. The method, then: A nude mouse transplanted with NCI-H460 cells (human-derived lung cancer cell line) was administered with the […], through intra-abdominal cavity and intra-subcutaneous injection. Then, a growth inhibiting effect of a tumor was tested. Mice were divided into three groups such as a negative control group, and groups administered with a test material in doses of 50 and 100 mg/kg. Each group included 10 mice. The negative control group was administered with a mixture solution containing DMSO (excipient), Tween80, PEG400, and injection water, and the groups administered with the test material in doses of 50 mg/kg were administered with the inventive compound once a day, for 27 days including an autopsy day, 28 times in total (4 times for intra-abdominal cavity injection and 24 times for intra-subcutaneous injection.
During the observation period, general symptoms were observed once a day, and the body weight of an animal and the volume of a tumor were measured twice a week. On the day before autopsy, all individuals were fasted for 18 hours or more. On the day of autopsy, 0.5, 1 and 2 hours 1 after the test material was administered, from 3 mice, 3 mice and 4 mice from respective groups, blood was collected and tumor was extracted.
The collected blood was placed in an EDTA-containing tube, and centrifuged to separate plasma. The extracted tumor was weighed. Half of the plasma and the tumor were rapidly frozen by liquid nitrogen and placed in a frozen state, and the rest were fixed with 10% neutral buffered formalin solution and sent to a test client.

Take `CCOC(=O)CC(=O)Nc1ccc(C(=O)O)cc1` [P.C]: the “cytotoxicity in normal WI-26 cells” value in the data set with WI-26 cells was “no cytotoxicity”. Moreover, the “cell death of lung cancer cells (MTT)” value with NCI-H460 [1] was “cell death depending on treating time and concentration”. Also, the “apoptosis rate of cancer cells (FACS)” value with NCI-H460 [2] is “concentration-dependently improves apoptosis rate”. In addition, the “body weight of mouse vs control group” value in the data set with NCI-H460 cells (FIG. 10) was “no difference”. In the data set with NCI-H460 cells (FIG. 12), the “tumors observed (photograph) vs control group” value is “visibly significantly reduced”. The “weight of tumor vs control group” value in the data set with NCI-H460 cells (at autopsy, FIG. 11) was “significantly reduced”. In addition, in the data set on NCI-H460 cells (intra-abdominal and subcutaneous injection, FIG. 9), the “volume of the tumor vs control group” value is given as “significantly reduced”.
